Measured values from patent publication US10273226B2, “Pyrazolyl-heteroarylamides as pesticides” (Bayer Animal Health GmbH, priority 2014, dated 2019).

Tests used:
Type in all cases: in vivo
Ctenocephalides felis [1] = experiment: Ctenocephalides felis in vitro contact test with adult cat fleas; settings: application rate 5 μg/cm^2 (500 g/ha); after 48 h; fleas dead or moribund
How it was run: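 Adult Ctenocephalides felis (5-10 per tube) were held 48 h at room temperature in tubes whose inner walls carried dried active ingredient, e.g. 5 μg/cm^2 from a 900 ppm acetone coating. Percent efficacy reflects fleas motionless or uncoordinated after being knocked to the tube base.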

Rhipicephalus sanguineus = Rhipicephalus sanguineus in vitro contact test with adult brown dog ticks; settings: application rate 5 μg/cm^2 (500 g/ha); after 48 h; ticks dead or moribund
How it was run: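 Test tubes (25 ml) were coated by dissolving active ingredient in acetone p.a., diluting to the required concentration, and spreading 250 μl over the inner walls and base on an orbital shaker at 30 rpm for 2 h. Once dry, 5-10 adult Rhipicephalus sanguineus were added, and tubes were capped with perforated lids and kept horizontal in darkness at room temperature. At 48 h, ticks were knocked down and heated at 45-50° C. for up to 5 min. Those unable to climb away were counted dead or moribund, and efficacy ran from 0% to 100%.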

[2] = tested on: Boophilus microplus Parkhurst strain, SP-resistant; experiment: Boophilus microplus dip test; settings: application rate 100 ppm, assessed after 7 days
Protocol: Boophilus microplus—Dip Test
Test animals: cattle ticks (Boophilus microplus) Parkhurst strain, SP-resistant
Solvent: dimethyl sulphoxide
10 mg of active ingredient are dissolved in 0.5 ml of dimethyl sulphoxide. For the purpose of producing a suitable formulation, the active ingredient solution is diluted with water to the concentration desired in each case.
This active ingredient formulation is pipetted into tubes. 8-10 adult engorged female cattle ticks (Boophilus microplus) are transferred into a further tube with holes. The tube is immersed into the active ingredient formulation, and all the ticks are completely wetted. After the liquid has run out, the ticks are transferred on filter discs into plastic dishes and stored in a climate-controlled room.
Efficacy is assessed after 7 days by laying of fertile eggs. Eggs which are not visibly fertile are stored in a climate-controlled cabinet until the larvae hatch after about 42 days. An efficacy of 100% means that none of the ticks has laid any fertile eggs; 0% means that all the eggs are fertile.

Boophilus microplus = Boophilus microplus injection test; settings: application rate 20 μg/animal; injection into abdomen; assessed after 7 days
How it was run: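 Compound dissolved in DMSO (10 mg per 0.5 ml, then diluted with DMSO to test concentration); 1 μl injected into the abdomen of 5 engorged adult female ticks, which are then held in a climate-controlled room. Efficacy judged after 7 days by laying of fertile eggs.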

Ctenocephalides felis [3] = experiment: Ctenocephalides felis oral test; settings: application rate 100 ppm in citrated cattle blood; after 2 days
How it was run: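 Steps: active ingredient dissolved in dimethyl sulphoxide; blood dilution prepared; fleas (about 20, unfed adults) held in gauze-closed chamber beneath a cylinder of treated blood; feeding via parafilm; kill percentage determined after 2 days.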

Lucilia cuprina = Lucilia cuprina test; settings: application rate 100 ppm; L1 larvae; after 2 days
How it was run: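 Mortality read at 2 days as percent larvae killed (100% = all, 0% = none). Test used roughly 20 first-instar larvae on minced horsemeat dosed with water-diluted DMSO formulation of compound.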

Musca domestica = Musca domestica test; settings: application rate 100 ppm; adult houseflies; after 2 days
How it was run: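 First, 10 mg compound was taken up in 0.5 ml DMSO and then brought with water to the required concentration. This was applied with sugar solution to a sponge in vessels holding 10 adult flies; kill was assessed after 2 days.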

Myzus persicae = Myzus persicae spray test; settings: application rate 100 g/ha; after 6 days
Protocol: Myzus persicae—Spray Test
To produce an appropriate active ingredient formulation, 1 part by weight of active ingredient is dissolved using the specified parts by weight of solvent and made up with water containing an emulsifier concentration of 1000 ppm until the desired concentration is attained. To produce further test concentrations, the preparation is diluted with emulsifier-containing water.
Discs of Chinese cabbage leaves (Brassica pekinensis) infested by all stages of the green peach aphid (Myzus persicae) are sprayed with an active ingredient formulation of the desired concentration.
After 6 days, efficacy in % is determined. 100% means that all the aphids have been killed; 0% means that none of the aphids have been killed.

Phaedon cochleariae = Phaedon cochleariae spray test; settings: application rate 100 g/ha; larvae; after 7 days
How it was run: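 Mortality of Phaedon larvae, in %, was read 7 days after release onto sprayed, dried Brassica pekinensis leaf discs. Test dilutions were prepared in water with 1000 ppm emulsifier. A score of 0% means no larvae died and 100% means all were killed.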

Spodoptera frugiperda = Spodoptera frugiperda spray test; settings: application rate 100 g/ha; caterpillars; after 7 days
How it was run: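 Percent kill of armyworm caterpillars was scored 7 days after they were placed on dried, sprayed Zea mays leaf discs. Spray solutions were made by dissolving active ingredient in solvent and diluting with 1000 ppm emulsifier water.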

Tetranychus urticae = Tetranychus urticae spray test, OP-resistant; settings: application rate 100 g/ha; after 6 days
How it was run: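 Percent kill is assessed 6 days after spraying infested Phaseolus vulgaris leaf discs, with all mite stages present. Compound is applied as a solvent/emulsifier aqueous formulation at the desired concentration.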

SMILES | efficacy (Ctenocephalides felis [1]) | efficacy (Rhipicephalus sanguineus) | efficacy (laying of fertile eggs) [2] | efficacy (laying of fertile eggs) (Boophilus microplus) | efficacy (kill in %) (Ctenocephalides felis [3]) | efficacy (kill in %) (Lucilia cuprina) | efficacy (kill in %) (Musca domestica) | efficacy (Myzus persicae) | efficacy (Phaedon cochleariae) | efficacy (Spodoptera frugiperda) | efficacy (Tetranychus urticae)
Cn1nc(C(F)(F)C(F)(F)F)c(C(F)(F)F)c1-n1cc(-c2ccc(F)c(NC(=O)c3ccc(Cl)nc3)c2)cn1 [Example 1-099] | 100% | 100% | 100% | 100% | 100% | 100% | 100% | 100% | 100% | 100% | 100%
Cc1ccc(C(=O)Nc2cc(-c3cnn(-c4c(C(F)(F)F)c(C(F)(F)C(F)(F)F)nn4C)c3)ccc2F)cc1 [Example 1-060] | 80% | 100% | 100% | 100% | 100% | 100% |  |  | 100% | 83% | 100%
Cn1nc(C(F)(F)C(F)(F)F)c(C(F)(F)F)c1-n1cc(-c2cccc(NC(=O)c3ccncc3F)c2)cn1 [Example 1-004] | 100% | 100% | 100% | 100% | 100% | 100% | 100% |  | 100% | 100% | 100%
Cn1nc(C(F)(F)C(F)(F)F)c(C(F)(F)F)c1-n1cc(-c2ccc(F)c(NC(=O)c3ccccc3)c2)cn1 [Example 1-026] | 100% | 100% | 100% | 100% | 100% | 100% | 90% | 100% | 100% | 100% | 100%
Cn1nc(C(F)(F)C(F)(F)F)c(C(F)(F)F)c1-n1cc(-c2ccc(F)c(NC(=O)c3ccc(F)nc3)c2)cn1 [Example 1-100] | 100% | 100% | 100% | 100% | 100% | 100% | 100% | 100% | 100% | 100% | 100%
Cc1cccc(C(=O)Nc2cc(-c3cnn(-c4c(C(F)(F)F)c(C(F)(F)C(F)(F)F)nn4C)c3)ccc2F)c1C [Example 1-080] |  |  | 100% | 100% | 95% |  |  |  |  |  | 
Cn1nc(C(F)(F)C(F)(F)F)c(C(F)(F)F)c1-n1cc(-c2cnc(Cl)c(NC(=O)c3ccc(F)cc3)c2)cn1 [Example 2-001] |  | 100% | 80% | 100% | 100% | 100% | 100% |  | 100% | 100% | 100%
Cn1nc(C(F)(F)C(F)(F)F)c(C(F)(F)F)c1-n1cc(-c2ccc(F)c(NC(=O)c3cccs3)c2)cn1 [Example 1-049] | 100% | 100% | 100% | 100% | 100% | 100% | 80% |  |  |  | 
Cn1nc(C(F)(F)C(F)(F)F)c(C(F)(F)F)c1-n1cc(-c2ccc(F)c(NC(=O)c3ccc(F)cc3)c2)cn1 [Example 1-027] | 100% | 100% | 100% | 100% | 100% | 100% | 100% | 100% | 100% | 100% | 100%
Cn1nc(C(F)(F)C(F)(F)F)c(C(F)(F)F)c1-n1cc(-c2cccc(NC(=O)c3ccccc3)c2)cn1 [Example 1-010] | 100% | 100% | 90% | 100% | 100% | 100% | 100% | 100% | 100% | 100% | 100%
CN(C(=O)c1ccc(F)cc1)c1cc(-c2cnn(-c3c(C(F)(F)F)c(C(F)(F)C(F)(F)F)nn3C)c2)ccc1F [Example 1-037] | 100% |  | 80% | 100% | 100% | 100% | 90% |  | 100% | 100% | 
COc1cccc(C(=O)Nc2cc(-c3cnn(-c4c(C(F)(F)F)c(C(F)(F)C(F)(F)F)nn4C)c3)ccc2F)c1 [Example 1-042] |  | 100% | 90% | 100% | 100% | 100% |  |  | 100% |  | 100%
COc1cc(C(=O)Nc2cc(-c3cnn(-c4c(C(F)(F)F)c(C(F)(F)C(F)(F)F)nn4C)c3)ccc2F)ccc1F [Example 1-094] | 100% | 100% | 100% | 100% | 100% | 100% | 100% |  | 100% | 83% | 100%
Cn1nc(C(F)(F)C(F)(F)F)c(C(F)(F)F)c1-n1cc(-c2ccc(F)c(NC(=O)c3cccc(F)c3)c2)cn1 [Example 1-073] | 100% | 100% | 100% | 100% | 100% | 100% | 90% |  | 100% | 100% | 100%
Cn1nc(C(F)(F)C(F)(F)F)c(C(F)(F)F)c1-n1cc(-c2ccc(F)c(NC(=O)c3ccc(C#N)nc3)c2)cn1 [Example 1-098] | 100% | 80% | 100% | 100% | 100% | 100% |  | 100% | 100% | 100% | 100%
